Experimental data as given in paper PMC12775434, “Ultra-large virtual screening unveils potent agonists of the neuromodulatory orphan receptor GPR139” (Nature Communications, 2025).
Several values for one entry are separate records, joined by “and”; a condition that tells them apart may be missing. Equal values may be shown once. Read-outs that look alike come from different tables or passages of the source. Values belong to the molecule of their own block, whether it stands above or below them.

Biological target: T1, GPR139 (Homo sapiens, UniProt Q6DWJ6)
T1 sequence (Q6DWJ6 1-353): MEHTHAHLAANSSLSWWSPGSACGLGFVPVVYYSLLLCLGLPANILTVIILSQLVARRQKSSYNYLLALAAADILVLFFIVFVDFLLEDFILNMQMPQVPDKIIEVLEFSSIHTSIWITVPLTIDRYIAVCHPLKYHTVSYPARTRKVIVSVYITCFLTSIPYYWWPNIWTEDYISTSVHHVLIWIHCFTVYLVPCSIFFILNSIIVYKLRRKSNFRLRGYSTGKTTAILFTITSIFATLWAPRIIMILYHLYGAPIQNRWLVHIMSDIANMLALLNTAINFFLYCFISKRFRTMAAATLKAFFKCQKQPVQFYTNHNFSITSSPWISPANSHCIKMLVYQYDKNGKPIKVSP
Assay: Ca2+ mobilization assay, agonist mode, stable GPR139-CHOk1 cell line
Format: cell-based
Conditions: for Emax: normalized to Lundbeck Cmp 1a, read-out: Emax (%), Ca2+ mobilization
Procedure, shortened: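 Agonist activity of compounds is assessed in stably transfected CHO-K1 cells using the calcium dye Fluo-4 at 37 °C in HEPES-buffered HBSS (pH 7.4). Efficacy is expressed relative to the reference agonist Lundbeck Cmp 1a, set as 100%.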

[1] = Supplementary Table 7, enantiopure compounds, read-out: pEC50, Ca2+ mobilization (converted)
[2] = log [Compound] M -12.0, individual replicates
[3] = log [Compound] M -8.5, individual replicates
[4] = log [Compound] M -9.0, individual replicates
[5] = log [compound] M -4.5, individual replicates
[6] = log [compound] M -5.0, individual replicates
[7] = log [compound] M -5.5, individual replicates
[8] = log [compound] M -6.0, individual replicates
[9] = log [compound] M -6.5, individual replicates
[10] = log [compound] M -7.0, individual replicates
[11] = log [compound] M -7.5, individual replicates
[12] = log [compound] M -8.0, individual replicates

- Emax (Supplementary Table 4): 100 ± 2%
- EC50 (Supplementary Table 4, read-out: pEC50, Ca2+ mobilization (converted)): 63.1 nM
- EC50 [1]: 15.8 nM
- Emax (Supplementary Table 7): 119 ± 6%
- Ca2+ signal (% of Cmp 1a) (log [Compound] M -5.5, replicate experiments): 100 % of Cmp 1a
- Ca2+ signal (% of Cmp 1a) (log [Compound] M -9.0, replicate experiments): 0 % of Cmp 1a
- Ca2+ signal (% of Cmp 1a) [2]: 0 % of Cmp 1a
- Ca2+ signal (% of Cmp 1a) (log [Compound] M = -5.5, individual replicate columns): 100 % of Cmp 1a
- Ca2+ signal (% of Cmp 1a) (log [Compound] M = -9.0, individual replicate columns): 0 % of Cmp 1a
Compound: CC(NC(=O)CNC(=O)c1cccc(Cl)c1)c1ccccc1 (stereo not shown) [JNJ-63533054, reference compound]
- Ca2+ signal (% of Cmp 1a) (log [Compound] M -6.0, replicate experiments): 91 % of Cmp 1a and 96 % of Cmp 1a and 95 % of Cmp 1a
- Ca2+ signal (% of Cmp 1a) (log [Compound] M -6.5, replicate experiments): 91 % of Cmp 1a and 78 % of Cmp 1a and 84 % of Cmp 1a
- Ca2+ signal (% of Cmp 1a) (log [Compound] M -7.0, replicate experiments): 68 % of Cmp 1a and 62 % of Cmp 1a and 69 % of Cmp 1a
- Ca2+ signal (% of Cmp 1a) (log [Compound] M -7.5, replicate experiments): 36 % of Cmp 1a and 26 % of Cmp 1a and 32 % of Cmp 1a
- Ca2+ signal (% of Cmp 1a) (log [Compound] M -8.0, replicate experiments): 25 % of Cmp 1a and 21 % of Cmp 1a and 8 % of Cmp 1a
- Ca2+ signal (% of Cmp 1a) (log [Compound] M -8.5, individual replicates, listed as JNJ (S)): 33 % of Cmp 1a and 17 % of Cmp 1a and 31 % of Cmp 1a
- Ca2+ signal (% of Cmp 1a) (log [Compound] M -8.5, replicate experiments): 11 % of Cmp 1a and 1.8 % of Cmp 1a and -4.36 % of Cmp 1a
- Ca2+ signal (% of Cmp 1a) (log [Compound] M -9.0, individual replicates, listed as JNJ (S)): 12 % of Cmp 1a and 6 % of Cmp 1a and 21 % of Cmp 1a
- Ca2+ signal (% of Cmp 1a) (log [Compound] M = -6.0, individual replicate columns): 96 % of Cmp 1a and 95 % of Cmp 1a and 91 % of Cmp 1a
- Ca2+ signal (% of Cmp 1a) (log [Compound] M = -6.5, individual replicate columns): 78 % of Cmp 1a and 84 % of Cmp 1a and 91 % of Cmp 1a
- Ca2+ signal (% of Cmp 1a) (log [Compound] M = -7.0, individual replicate columns): 62 % of Cmp 1a and 69 % of Cmp 1a and 68 % of Cmp 1a
- Ca2+ signal (% of Cmp 1a) (log [Compound] M = -7.5, individual replicate columns): 26 % of Cmp 1a and 32 % of Cmp 1a and 36 % of Cmp 1a
- Ca2+ signal (% of Cmp 1a) (log [Compound] M = -8.0, individual replicate columns): 21 % of Cmp 1a and 8 % of Cmp 1a and 25 % of Cmp 1a
- Ca2+ signal (% of Cmp 1a) (log [Compound] M = -8.5, individual replicate columns): 1.8 % of Cmp 1a and -4.36 % of Cmp 1a and 11 % of Cmp 1a
- Ca2+ signal (% of Cmp 1a) (log [compound] M -4.5, individual replicates, listed as JNJ (S)): 119 % of Cmp 1a and 120 % of Cmp 1a and 108 % of Cmp 1a
- Ca2+ signal (% of Cmp 1a) (log [compound] M -5.0, individual replicates, listed as JNJ (S)): 106 % of Cmp 1a and 110 % of Cmp 1a and 122 % of Cmp 1a
- Ca2+ signal (% of Cmp 1a) (log [compound] M -5.5, individual replicates, listed as JNJ (S)): 100 % of Cmp 1a and 103 % of Cmp 1a and 143 % of Cmp 1a
- Ca2+ signal (% of Cmp 1a) (log [compound] M -6.0, individual replicates, listed as JNJ (S)): 91 % of Cmp 1a and 107 % of Cmp 1a and 141 % of Cmp 1a
- Ca2+ signal (% of Cmp 1a) (log [compound] M -6.5, individual replicates, listed as JNJ (S)): 93 % of Cmp 1a and 118 % of Cmp 1a and 122 % of Cmp 1a
- Ca2+ signal (% of Cmp 1a) (log [compound] M -7.0, individual replicates, listed as JNJ (S)): 76 % of Cmp 1a and 120 % of Cmp 1a and 95 % of Cmp 1a
- Ca2+ signal (% of Cmp 1a) (log [compound] M -7.5, individual replicates, listed as JNJ (S)): 65 % of Cmp 1a and 92 % of Cmp 1a and 71 % of Cmp 1a
- Ca2+ signal (% of Cmp 1a) (log [compound] M -8.0, individual replicates, listed as JNJ (S)): 46 % of Cmp 1a and 57 % of Cmp 1a and 54 % of Cmp 1a

- EC50 [1]: 316 nM
- Emax (Supplementary Table 7): 112 ± 1%
- Ca2+ signal (% of Cmp 1a) [2]: 0 % of Cmp 1a
Compound: Cc1cscc1-c1nc(CC(=O)N[C@H](C)c2ccccc2)no1 [1.1(R)]
- Ca2+ signal (% of Cmp 1a) [3]: 12 % of Cmp 1a and 7 % of Cmp 1a and 3.33 % of Cmp 1a
- Ca2+ signal (% of Cmp 1a) [4]: 9 % of Cmp 1a and 0.333 % of Cmp 1a and -1.33 % of Cmp 1a
- Ca2+ signal (% of Cmp 1a) [5]: 101 % of Cmp 1a and 112 % of Cmp 1a and 116 % of Cmp 1a
- Ca2+ signal (% of Cmp 1a) [6]: 100 % of Cmp 1a and 104 % of Cmp 1a and 97 % of Cmp 1a
- Ca2+ signal (% of Cmp 1a) [7]: 97 % of Cmp 1a and 88 % of Cmp 1a and 90 % of Cmp 1a
- Ca2+ signal (% of Cmp 1a) [8]: 74 % of Cmp 1a and 79 % of Cmp 1a and 77 % of Cmp 1a
- Ca2+ signal (% of Cmp 1a) [9]: 50 % of Cmp 1a and 51 % of Cmp 1a and 65 % of Cmp 1a
- Ca2+ signal (% of Cmp 1a) [10]: 32 % of Cmp 1a and 25 % of Cmp 1a and 37 % of Cmp 1a
- Ca2+ signal (% of Cmp 1a) [11]: 15 % of Cmp 1a and 13 % of Cmp 1a and 16 % of Cmp 1a
- Ca2+ signal (% of Cmp 1a) [12]: 9 % of Cmp 1a and 4.67 % of Cmp 1a and 8 % of Cmp 1a

- EC50 (GPR139-CHOk1, read-out: EC50, Ca2+ mobilization): 8 nM
- Emax (Supplementary Table 7): 121 ± 11%
- Ca2+ signal (% of Cmp 1a) [2]: 0 % of Cmp 1a
Compound: Cc1cscc1-c1nc(CC(=O)N[C@@H](C)c2ccccc2)no1 [1.1(S)]
- Ca2+ signal (% of Cmp 1a) [3]: 28 % of Cmp 1a and 50 % of Cmp 1a and 51 % of Cmp 1a
- Ca2+ signal (% of Cmp 1a) [4]: 24 % of Cmp 1a and 31 % of Cmp 1a and 22 % of Cmp 1a
- Ca2+ signal (% of Cmp 1a) [5]: 102 % of Cmp 1a and 114 % of Cmp 1a and 136 % of Cmp 1a
- Ca2+ signal (% of Cmp 1a) [6]: 108 % of Cmp 1a and 117 % of Cmp 1a and 136 % of Cmp 1a
- Ca2+ signal (% of Cmp 1a) [7]: 90 % of Cmp 1a and 125 % of Cmp 1a and 141 % of Cmp 1a
- Ca2+ signal (% of Cmp 1a) [8]: 102 % of Cmp 1a and 120 % of Cmp 1a and 136 % of Cmp 1a
- Ca2+ signal (% of Cmp 1a) [9]: 96 % of Cmp 1a and 104 % of Cmp 1a and 131 % of Cmp 1a
- Ca2+ signal (% of Cmp 1a) [10]: 104 % of Cmp 1a and 95 % of Cmp 1a and 127 % of Cmp 1a
- Ca2+ signal (% of Cmp 1a) [11]: 92 % of Cmp 1a and 77 % of Cmp 1a and 113 % of Cmp 1a
- Ca2+ signal (% of Cmp 1a) [12]: 61 % of Cmp 1a and 62 % of Cmp 1a and 73 % of Cmp 1a

- EC50 [1]: 3160 nM
- Emax (Supplementary Table 7): 99 ± 5%
- Ca2+ signal (% of Cmp 1a) [2]: 0 % of Cmp 1a
Compound: C[C@@H](NC(=O)CNC(=O)c1cccc(Cl)c1)c1ccccc1 [JNJ(R), reference compound]
- Ca2+ signal (% of Cmp 1a) [3]: -4.33 % of Cmp 1a and 7 % of Cmp 1a and -3.33 % of Cmp 1a
- Ca2+ signal (% of Cmp 1a) [4]: -1.33 % of Cmp 1a and 6 % of Cmp 1a and -7 % of Cmp 1a
- Ca2+ signal (% of Cmp 1a) [5]: 84 % of Cmp 1a and 100 % of Cmp 1a and 82 % of Cmp 1a
- Ca2+ signal (% of Cmp 1a) [6]: 66 % of Cmp 1a and 88 % of Cmp 1a and 60 % of Cmp 1a
- Ca2+ signal (% of Cmp 1a) [7]: 49 % of Cmp 1a and 72 % of Cmp 1a and 33 % of Cmp 1a
- Ca2+ signal (% of Cmp 1a) [8]: 28 % of Cmp 1a and 43 % of Cmp 1a and 16 % of Cmp 1a
- Ca2+ signal (% of Cmp 1a) [9]: 13 % of Cmp 1a and 14 % of Cmp 1a and -2 % of Cmp 1a
- Ca2+ signal (% of Cmp 1a) [10]: 4.33 % of Cmp 1a and 9 % of Cmp 1a and -10 % of Cmp 1a
- Ca2+ signal (% of Cmp 1a) [11]: 11 % of Cmp 1a and 3.67 % of Cmp 1a and -10 % of Cmp 1a
- Ca2+ signal (% of Cmp 1a) [12]: 5.33 % of Cmp 1a (2×) and -13 % of Cmp 1a
